Values joined by “and” are separate entries in the source; they are usually repeats but may differ in a detail not shown here. Equal entries are not always repeated.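 Five concentrations, 48 hours, 96-well plates. Abbreviation: GI50, concentration required for 50% inhibition of growth. TGI: total growth inhibition.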
Legend:
Assay in all cases: NCI tumour cell line growth inhibition, 48 h
MDA-N = tested on: MDA-N
DLD-1 colon = tested on: DLD-1 colon
DMS 114 small cell lung = tested on: DMS 114 small cell lung
HOP-18 NSCLC = tested on: HOP-18 NSCLC
KM20L2 colon = tested on: KM20L2 colon
LXFL 529 NSCLC = tested on: LXFL 529 NSCLC
M19-MEL melanoma = tested on: M19-MEL melanoma
RXF-631 renal = tested on: RXF-631 renal
XF 498 CNS = tested on: XF 498 CNS
P388/ADR leukemia = tested on: P388/ADR leukemia
SN12K1 renal = tested on: SN12K1 renal

SMILES | TGI (MDA-N) [µM] | TGI (DLD-1 colon) | TGI (DMS 114 small cell lung) | TGI (HOP-18 NSCLC) | TGI (KM20L2 colon) | TGI (LXFL 529 NSCLC) [µM] | TGI (M19-MEL melanoma) | TGI (RXF-631 renal) [µM] | TGI (XF 498 CNS) | other results
CNC1C(O)C(OC2C(N)CC(N)C(OC3OC(CN)=CCC3N)C2O)OCC1(C)O (configuration not stated) | > 100 |  |  |  |  |  |  |  |  | 
CSc1nc(NC2OCC(OC(C)=O)C(OC(C)=O)C2OC(C)=O)c(N=C(C)C(C)=O)c(=O)n1C (configuration not stated) |  | > 100 µM | > 100 µM | > 100 µM | > 100 µM | > 100 | > 100 µM | > 100 | > 100 µM | 
O=C(Cc1nc2ccccc2s1)Nc1ccc(Cl)cc1 |  | > 100 µM |  |  | > 100 µM | > 100 | > 100 µM |  | > 100 µM | 
C[N+](C)(C)CC(=O)N/N=C(\CCC(=O)NCCc1ccccc1)CC(=O)c1ccccc1 |  | > 100 µM | > 100 µM | > 100 µM | > 100 µM | > 100 | > 100 µM |  | > 100 µM | 
COc1cc2c3c(c4ccc(OC)c(OC)c4c2cc1OC)CN1CCC[C@@H]1C3 | 12.2 |  |  |  |  |  |  |  |  | 
C[C@H]1CC[C@H]([C@@H](C)[C@H]2[C@@H](O)C[C@H]3[C@@H]4CC[C@H]5C[C@@H](O)CC[C@]5(C)[C@H]4CC[C@]23C)NC1 | 43.8 |  |  |  |  |  |  |  |  | 
Nc1nc(Cl)cc(NCCCCCNc2cc(Cl)nc(N)n2)n1 |  | > 100 µM |  | > 100 µM | > 100 µM | > 100 |  | > 100 |  | 
O=C(NCCO)c1cc2c(cn1)[nH]c1ccccc12 |  | > 100 µM | > 100 µM |  | > 100 µM | > 100 |  | > 100 | > 100 µM | 
C=CC(=O)N1C/C(=C\c2ccccc2)C(=O)/C(=C/c2ccccc2)C1 | 1.07 | 1.15 µM | 2.73 µM | 9.97 µM | 3.1 µM | 2.82 | 2.48 µM |  | 3.54 µM | GI50 (MDA-N): 0.427 µM
CC1=C(C(=O)Nc2ccccc2)C(c2ccc([N+](=O)[O-])cc2)C(C(=O)Nc2ccccc2)=C(C)N1 |  | > 100 µM | 52.1 µM |  | 35.3 µM | 46.5 | 32.1 µM | > 100 | 49.2 µM | 
CC(C)N(C(=O)C1(C)CC1)C(C)C |  | > 100 µM | > 100 µM | > 100 µM | > 100 µM | > 100 | > 100 µM | > 100 | > 100 µM | 
O=C1Nc2cc(Cl)ccc2N=CC1NC(=O)C(c1ccccc1)c1ccccc1Cl (configuration not stated) |  | > 100 µM | > 100 µM | > 100 µM | > 100 µM | > 100 | > 100 µM | > 100 |  | 
Cc1nnc(N=Nc2c(O)[nH]c3c(Cl)cc(Cl)cc23)n1N |  | > 100 µM |  | > 100 µM | > 100 µM | > 100 | > 100 µM |  |  | 
C#Cc1c(C)c(/C=C/C(C)=C/C=C/C(C)=C/C(=O)OC)n(C)c1C |  | > 100 µM | > 100 µM |  | > 100 µM | > 100 | > 100 µM | > 100 | > 100 µM | 
COc1ccc(/C=C/C(=O)C(C)(C)CN2CCCCC2)cc1 |  | 36.4 µM | 29.6 µM | 60.4 µM | > 100 µM | 28.9 | 33.8 µM |  | 30.1 µM | 
COc1c2ccoc2cc2oc(=O)ccc12 | > 100 |  |  |  |  |  |  |  |  | 
CCc1c2c(nc3cc4c(c(N)c13)OCO4)-c1cc3c(c(=O)n1C2)COC(=O)[C@]3(O)CC | > 100 |  |  |  |  |  |  |  |  | 
COc1cccc(NC(=O)C(C)(C)C)c1C=O |  | > 100 µM | > 100 µM | > 100 µM | > 100 µM | > 100 | > 100 µM | > 100 | 85.4 µM | 
CN(C)c1ncnc2c1Cc1ccccc1C(=O)N2C |  | > 100 µM | > 100 µM | > 100 µM | > 100 µM | > 100 | > 100 µM | > 100 | > 100 µM | 
C=CCCOC(=O)CO[N+](=O)[O-] |  | > 100 µM | > 100 µM |  | > 100 µM | > 100 | > 100 µM |  | > 100 µM | 
N.N.N.N.O=NN1CCCCCC1(P(=O)([O-])[O-])P(=O)([O-])[O-].[Pt+4].[Pt+4] |  | > 100 µM |  | > 100 µM | > 100 µM | > 100 |  |  |  | GI50 (DLD-1 colon): > 100 µM; GI50 (HOP-18 NSCLC): > 100 µM; GI50 (KM20L2 colon): > 100 µM; GI50 (LXFL 529 NSCLC): > 100 µM

SMILES | TGI (MDA-N) [µM] | TGI (DLD-1 colon) | TGI (DMS 114 small cell lung) | TGI (HOP-18 NSCLC) | TGI (KM20L2 colon) | TGI (LXFL 529 NSCLC) [µM] | TGI (M19-MEL melanoma) | TGI (RXF-631 renal) [µM] | TGI (XF 498 CNS) | other results
C=CCCCn1ccc2ccccc21 |  | > 100 µM | > 100 µM | > 100 µM | > 100 µM | > 100 | > 100 µM | > 100 | > 100 µM | 
NC(=O)/C(=C\c1ccncc1)c1cccc2ccccc12 | > 100 |  |  |  |  |  |  |  |  | 
Cc1ccc(-n2c3nc(=O)n(C)c(=O)c-3nc3ccccc32)cc1 |  | > 100 µM | 27.6 µM | 40.4 µM | 26.3 µM | > 100 |  |  | 55.9 µM | 
COc1cc2c(c(OC)c1O)-c1ccc(OC)c(=O)cc1[C@@H](NC(=O)C(F)(F)F)CC2 | 0.0628 |  |  |  |  |  |  |  |  | 
CC1CN(c2ccc(Cl)cc2)CC(C)(C)OC(=O)O1 (configuration not stated) |  | > 100 µM | > 100 µM |  | > 100 µM | > 100 | > 100 µM | > 100 | > 100 µM | 
COCc1c(CO)cnc(C)c1OC1OC(CO)C(O)C(O)C1O (configuration not stated) |  | > 100 µM | > 100 µM |  | > 100 µM | > 100 | > 100 µM |  | > 100 µM | 
O=c1[nH]cc(/C=N\Nc2ccccc2)c(=O)[nH]1 | > 100 |  |  |  |  |  |  |  |  | 
CCN(CC)CC.CCOc1ccc(NC(=O)N=C=[N-])cc1.[CH-]1CCCCC1.[CH-]1CCCCC1.[CH-]1CCCCC1.[Cl-].[Sn+4] | 0.0471 | 0.0478 µM | 0.0594 µM | 0.0376 µM | 0.0505 µM | 0.0488 | 0.0513 µM | 0.0648 | 0.103 µM | GI50 (DLD-1 colon): 0.018 µM; GI50 (DMS 114 small cell lung): 0.0214 µM; GI50 (HOP-18 NSCLC): 0.0135 µM; GI50 (KM20L2 colon): 0.0229 µM; GI50 (LXFL 529 NSCLC): 0.0193 µM; GI50 (M19-MEL melanoma): 0.0208 µM; GI50 (MDA-N): 0.0205 µM; GI50 (RXF-631 renal): 0.0202 µM; GI50 (XF 498 CNS): 0.0335 µM
COc1ccc2c(c1O)C(=O)C(CCC(=O)O)CC2 (configuration not stated) |  | > 100 µM | > 100 µM | > 100 µM | > 100 µM | > 100 | > 100 µM | > 100 | > 100 µM | 
COc1cc(OC)c2ssc3c(OC)cc(OC)c4ssc1c2-c43 |  | > 100 µM | > 100 µM | > 100 µM | > 100 µM | > 100 | > 100 µM |  | > 100 µM | 
C#CCSc1n[nH]c(-c2ccco2)n1 | > 100 |  |  |  |  |  |  |  |  | 
CCCOc1ccc(-c2nc(-c3ccc(N=Cc4ccc(N(CCOS(C)(=O)=O)CCOS(C)(=O)=O)cc4C)cc3)cs2)cc1 | > 85 |  |  |  |  |  |  |  |  | 
C[C@H](N)C(=O)N[C@@H]1[C@H]2C(=C(O)C[C@@H](O)[C@@H]2O)C(=O)O[C@]1(C)C(Cl)Cl |  | 1.62 µM and 2.43 µM | 0.98 µM and 1.28 µM | 4.39 µM and 2.76 µM | 2.73 µM and 3.23 µM | 1.53 | 1.22 µM and 2.62 µM | 1.93 | 1.05 µM and 0.31 µM | GI50 (DLD-1 colon): 0.185 µM; GI50 (HOP-18 NSCLC): 0.375 µM; GI50 (MDA-N): 0.438 µM; TGI (P388/ADR leukemia): 2.1 µM; TGI (SN12K1 renal): 1.58 µM; GI50 (XF 498 CNS): 0.211 µM
COc1cc(Br)c(CC2(C#N)c3ccccc3C3C(N2C(=O)c2ccccc2)C3(Cl)Cl)cc1OC (configuration not stated) |  | > 65.5 µM | > 65.5 µM | > 65.5 µM | > 65.5 µM | > 65.5 |  |  | > 65.5 µM | 
CCOC(=O)Cc1nc2ccccc2s1 |  | 33.5 µM |  | 74.3 µM | 69.1 µM | 29.4 | 40.6 µM | 33.8 | 28 µM | 
CC(/C=C/C(=O)c1sc(-n2nc(-c3ccccc3)cc2-c2ccccc2)nc1C)=C\c1ccccc1 |  | > 100 µM | > 100 µM |  | > 100 µM | > 100 | > 100 µM | > 100 |  | 
CC1=C(C(=O)Nc2ccccc2C)C(c2ccc(C3C(C(=O)Nc4ccccc4C)=C(C)NC(C)=C3C(=O)Nc3ccccc3C)cc2)C(C(=O)Nc2ccccc2C)=C(C)N1 | 19.9 | 5.66 µM | 14 µM |  | 12.9 µM | 10.5 | 12.3 µM | 28.4 | 35.6 µM | 
COC(=O)NC1(NC(=O)OC)NC(=O)c2cc(OC)c(OC)cc2N1 | 16 |  |  |  |  |  |  |  |  | 
CO/[N+]([O-])=C\C(=O)N/C=C/C(=O)O | > 100 |  |  |  |  |  |  |  |  | 
O=C(O)C1=C(C(=O)Nc2ccccc2)C2C=CC1C2 (configuration not stated) |  | > 100 µM | > 100 µM | > 100 µM | > 100 µM | > 100 | > 100 µM |  | > 100 µM | 
Sc1ccc2ccccc2c1CNCc1ccccc1 | 37.6 |  |  |  |  |  |  |  |  | 
